Measurements reported in patent publication US20230096145A1, “METHODS OF CONTROLLING OR PREVENTING INFESTATION OF PLANTS BY THE PHYTOPATHOGENIC MICROORGANISM CORYNESPORA CASSIICOLA” (SYNGENTA CROP PROTECTION AG, priority 2020, published 2023).

These compounds were tested on Corynespora cassiicola (assay: Corynespora cassiicola liquid culture growth inhibition (microtiter plate, PDB)). Conditions: compared to untreated control, photometric at 620 nm after 3-4 days at 24 C.
Assay type: cell-based
Protocol: Conidia of the fungus from cryogenic storage were directly mixed into nutrient broth (PDB potato dextrose broth). A DMSO solution of the test compounds was placed into a microtiter plate (96-well format) and the nutrient broth containing the fungal spores was added to it. The test plates were incubated at 24 C and the inhibition of growth (% control of Corynespora cassiicola) was determined photometrically after 3-4 days at 620 nm. The activity of a compound is derived by comparing the inhibition of growth in the treated test solution to the growth in the untreated check. The concentration of the compounds was 6.7, 2.2, 0.74, 0.25, 0.082 and 0.027 ppm.
In the case of `Cc1ccc2c(C3=NC(C)(C)C(F)(F)c4cc(F)ccc43)cnn2c1C` [Compound 5], the inhibition at 6.7 ppm is reported as ≥ 70%.
With `Cc1ccc2c(C3=NC(C)(C)C(F)(F)c4ccccc43)cnn2c1` [Compound 3] the inhibition at 6.7 ppm was ≥ 70%.
In the case of `Cc1cccc2c(C3=NC(C)(C)C(F)(F)c4ccccc43)cnn12` [Compound 2], the inhibition at 6.7 ppm is reported as ≥ 70%.
`Cc1ccc2c(C3=NC(C)(C)C(F)(F)c4ccccc43)cnn2c1C` [Compound 1] was tested, and the inhibition at 6.7 ppm was ≥ 70%.
For `Cc1ccc2c(C3=NC(C)(C)C(F)(F)c4c(F)cccc43)cnn2c1C` [Compound 4], the inhibition at 6.7 ppm was ≥ 70%.
